Measured values taken from patent US20260085077A1, “HETEROCYCLIC DERIVATIVES AS JANUS KINASE INHIBITORS” (CHIESI FARMACEUTICI S.P.A., priority 2022, published 2026).

Test system: IL-13 induced pSTAT6 in BEAS-2B human cell line
Assay: Inhibition of IL-13 induced pSTAT6 in BEAS
Assay type: cell-based
Settings: IL-13 induced pSTAT6, BEAS-2B cells, ELISA
Description: BEAS-2B human cell line was seeded (100.000 cells/well) and incubated for 48 h at 37° C., 5% CO2, 95% humidity. Compounds were added and incubated 30 min followed by IL-13 as trigger. After 30 min incubation, cells were lysed and pSTAT6 determined by Fastscan phospho-stat6 (Tyr641) sandwich ELISA kit (cell signaling). Inhibitors were tested at 11 consecutive […] dilutions starting from 10 μM (10 μM-40 pM) in duplicate. Calculation of IC50 data, curves and QC analysis were made using Excel tools and GraphPadPrism software. QC criteria parameters: Z′≥0.35, Hill Slope range 0.5 to 5, S:B>2.

First: COc1cc2c(cc1-n1nc(C(=O)NCCN3CCC4(CC3)COC(=O)C4)c3cnc(-c4cnn5cccnc45)cc31)OCCN2 [Example 51, 1-(6-methoxy-3,4-dihydro-2H-benzo[b][1,4]oxazin-7-yl)-N-(2-(3-oxo-2-oxa-8-azaspiro[4.5]decan-8-yl)ethyl)-6-(pyrazolo[1,5-a]pyrimidin-3-yl)-1H-pyrazolo[4,3-c]pyridine-3-carboxamide]
Second: COc1cc2c(cc1-n1nc(C(=O)NCCN3CC4(COC(=O)C4)C3)c3cnc(-c4cnn5cccnc45)cc31)OCCN2 [Example 81, 1-(6-methoxy-3,4-dihydro-2H-benzo[b][1,4]oxazin-7-yl)-N-(2-(7-oxo-6-oxa-2-azaspiro[3.4]octan-2-yl)ethyl)-6-(pyrazolo[1,5-a]pyrimidin-3-yl)-1H-pyrazolo[4,3-c]pyridine-3-carboxamide]
The IC50 of the first is lower: less than 5.01 nM for the first, 5.01 to 50.1 nM for the second.

First: COc1cc2c(cc1-n1nc(C(=O)NCCN3CC(=O)OC(C)(C)C3)c3cnc(-c4cnn5cccnc45)cc31)OCCN2 [Example 77, N-(2-(2,2-dimethyl-6-oxomorpholino)ethyl)-1-(6-methoxy-3,4-dihydro-2H-benzo[b][1,4]oxazin-7-yl)-6-(pyrazolo[1,5-a]pyrimidin-3-yl)-1H-pyrazolo[4,3-c]pyridine-3-carboxamide]
Second: COc1cc2c(cc1-n1nc(C(=O)NCCN3CC4(CCOCC4)C3)c3cnc(-c4cnn5cccnc45)cc31)OCCN2 [Example 48, N-(2-(7-oxa-2-azaspiro[3.5]nonan-2-yl)ethyl)-1-(6-methoxy-3,4-dihydro-2H-benzo[b][1,4]oxazin-7-yl)-6-(pyrazolo[1,5-a]pyrimidin-3-yl)-1H-pyrazolo[4,3-c]pyridine-3-carboxamide]
The IC50 of the first is higher: 5.01 to 50.1 nM for the first, less than 5.01 nM for the second. The second is the more potent here.

`COc1cc2c(cc1-n1nc(NC(=O)OCCN3CCCCC3)c3cnc(-c4cnn5cccnc45)cc31)OCCN2` [Example 66, 2-(piperidin-1-yl)ethyl (1-(6-methoxy-3,4-dihydro-2H-benzo[b][1,4]oxazin-7-yl)-6-(pyrazolo[1,5-a]pyrimidin-3-yl)-1H-pyrazolo[4,3-c]pyridin-3-yl)carbamate] and `COc1cc2c(cc1-n1nc(NC(=O)OCCN3CCSCC3)c3cnc(-c4cnn5cccnc45)cc31)OCCN2` [Example 64, 2-thiomorpholinoethyl (1-(6-methoxy-3,4-dihydro-2H-benzo[b][1,4]oxazin-7-yl)-6-(pyrazolo[1,5-a]pyrimidin-3-yl)-1H-pyrazolo[4,3-c]pyridin-3-yl)carbamate] fall in the same range of IC50: 5.01 to 50.1 nM for the first, 5.01 to 50.1 nM for the second.

Compared with `COc1cc2c(cc1-n1nc(NC(=O)OCCN(C)C)c3cnc(-c4cnn5cccnc45)cc31)CCC(=O)N2` [Example 27, 2-(dimethylamino)ethyl (1-(7-methoxy-2-oxo-1,2,3,4-tetrahydroquinolin-6-yl)-6-(pyrazolo[1,5-a]pyrimidin-3-yl)-1H-pyrazolo[4,3-c]pyridin-3-yl)carbamate], `COc1cc2c(cc1-n1nc(C(=O)NCCCN(C)C)c3cnc(-c4cnn5cccnc45)cc31)CCC(=O)N2` [Example 24, N-(3-(dimethylamino)propyl)-1-(7-methoxy-2-oxo-1,2,3,4-tetrahydroquinolin-6-yl)-6-(pyrazolo[1,5-a]pyrimidin-3-yl)-1H-pyrazolo[4,3-c]pyridine-3-carboxamide] is higher in IC50: 5.01 to 50.1 nM for the first, 50.1 to 501 nM for the second.

`COc1cc2c(cc1-n1nc(C(=O)NC[C@@H]3CN(C)CCO3)c3cnc(-c4cnn5cccnc45)cc31)SCC(=O)N2` [Example 21, (R)-1-(6-methoxy-3-oxo-3,4-dihydro-2H-benzo[b][1,4]thiazin-7-yl)-N-((4-methylmorpholin-2-yl)methyl)-6-(pyrazolo[1,5-a]pyrimidin-3-yl)-1H-pyrazolo[4,3-c]pyridine-3-carboxamide] and `COc1cc2c(cc1-n1nc(C(=O)NC[C@H]3CN(C)CCO3)c3cnc(-c4cnn5cccnc45)cc31)SCC(=O)N2` [Example 22, (S)-1-(6-methoxy-3-oxo-3,4-dihydro-2H-benzo[b][1,4]thiazin-7-yl)-N-((4-methylmorpholin-2-yl)methyl)-6-(pyrazolo[1,5-a]pyrimidin-3-yl)-1H-pyrazolo[4,3-c]pyridine-3-carboxamide] fall in the same range of IC50: 5.01 to 50.1 nM for the first, 5.01 to 50.1 nM for the second.

`COc1cc2c(cc1-n1nc(C(=O)NCCCN(C)C)c3cnc(-c4cnn5cccnc45)cc31)OCCN2` [Example 43, N-(3-(dimethylamino)propyl)-1-(6-methoxy-3,4-dihydro-2H-benzo[b][1,4]oxazin-7-yl)-6-(pyrazolo[1,5-a]pyrimidin-3-yl)-1H-pyrazolo[4,3-c]pyridine-3-carboxamide] and `COC(=O)Nc1nn(-c2cc3c(cc2OC)NCCO3)c2cc(-c3cnn4cccnc34)ncc12` [Example 56, methyl (1-(6-methoxy-3,4-dihydro-2H-benzo[b][1,4]oxazin-7-yl)-6-(pyrazolo[1,5-a]pyrimidin-3-yl)-1H-pyrazolo[4,3-c]pyridin-3-yl)carbamate] fall in the same range of IC50: 5.01 to 50.1 nM for the first, 5.01 to 50.1 nM for the second.

`COc1cc2c(cc1-n1nc(NC(=O)OCCN3CC[C@@H](OC)C3)c3cnc(-c4cnn5cccnc45)cc31)SCCN2` [Example 35, (R)-2-(3-methoxypyrrolidin-1-yl)ethyl (1-(6-methoxy-3,4-dihydro-2H-benzo[b][1,4]thiazin-7-yl)-6-(pyrazolo[1,5-a]pyrimidin-3-yl)-1H-pyrazolo[4,3-c]pyridin-3-yl)carbamate] and `COc1cc2c(cc1-n1nc(NC(=O)O[C@H]3CCN(C)C3)c3cnc(-c4cnn5cccnc45)cc31)SCCN2` [Example 33, (S)-1-methylpyrrolidin-3-yl (1-(6-methoxy-3,4-dihydro-2H-benzo[b][1,4]thiazin-7-yl)-6-(pyrazolo[1,5-a]pyrimidin-3-yl)-1H-pyrazolo[4,3-c]pyridin-3-yl)carbamate] fall in the same range of IC50: 5.01 to 50.1 nM for the first, 5.01 to 50.1 nM for the second.

`COc1cc2c(cc1-n1nc(NC(=O)OCCCN3CCN(C)CC3)c3cnc(-c4cnn5cccnc45)cc31)OCCN2` [Example 59, 3-(4-methylpiperazin-1-yl)propyl (1-(6-methoxy-3,4-dihydro-2H-benzo[b][1,4]oxazin-7-yl)-6-(pyrazolo[1,5-a]pyrimidin-3-yl)-1H-pyrazolo[4,3-c]pyridin-3-yl)carbamate] and `COc1cc2c(cc1-n1nc(NC(=O)OCCN3CCS(=O)(=O)CC3)c3cnc(-c4cnn5cccnc45)cc31)OCCN2` [Example 62, 2-(1,1-dioxidothiomorpholino)ethyl (1-(6-methoxy-3,4-dihydro-2H-benzo[b][1,4]oxazin-7-yl)-6-(pyrazolo[1,5-a]pyrimidin-3-yl)-1H-pyrazolo[4,3-c]pyridin-3-yl)carbamate] fall in the same range of IC50: 5.01 to 50.1 nM for the first, 5.01 to 50.1 nM for the second.

`COc1cc2c(cc1-n1nc(NC(=O)OC[C@@H]3CN(C)CCO3)c3cnc(-c4cnn5cccnc45)cc31)OCCN2` [Example 65, (S)-(4-methylmorpholin-2-yl)methyl (1-(6-methoxy-3,4-dihydro-2H-benzo[b][1,4]oxazin-7-yl)-6-(pyrazolo[1,5-a]pyrimidin-3-yl)-1H-pyrazolo[4,3-c]pyridin-3-yl)carbamate] and `COc1cc2c(cc1-n1nc(NC(=O)OCCN(C)C3CCOC3=O)c3cnc(-c4cnn5cccnc45)cc31)SCCN2` (stereo not shown) [Example 20, 2-(methyl(2-oxotetrahydrofuran-3-yl)amino)ethyl (1-(6-methoxy-3,4-dihydro-2H-benzo[b][1,4]thiazin-7-yl)-6-(pyrazolo[1,5-a]pyrimidin-3-yl)-1H-pyrazolo[4,3-c]pyridin-3-yl)carbamate] fall in the same range of IC50: 5.01 to 50.1 nM for the first, 5.01 to 50.1 nM for the second.

`COc1cc2c(cc1-n1nc(C(=O)NCCCN3CCC(F)(F)CC3)c3cnc(Nc4ncc[nH]c4=O)cc31)OCCN2` [Example 76, N-(3-(4,4-difluoropiperidin-1-yl)propyl)-1-(6-methoxy-3,4-dihydro-2H-benzo[b][1,4]oxazin-7-yl)-6-((3-oxo-3,4-dihydropyrazin-2-yl)amino)-1H-pyrazolo[4,3-c]pyridine-3-carboxamide] and `COc1cc2c(cc1-n1nc(C(=O)NCCN3C[C@H]4COC(=O)[C@H]4C3)c3cnc(-c4cnn5cccnc45)cc31)OCCN2` [Example 50, 1-(6-methoxy-3,4-dihydro-2H-benzo[b][1,4]oxazin-7-yl)-N-(2-((3aS,6aR)-1-oxotetrahydro-1H-furo[3,4-c]pyrrol-5(3H)-yl)ethyl)-6-(pyrazolo[1,5-a]pyrimidin-3-yl)-1H-pyrazolo[4,3-c]pyridine-3-carboxamide] fall in the same range of IC50: 5.01 to 50.1 nM for the first, 5.01 to 50.1 nM for the second.

Compared with `COc1cc2c(cc1-n1nc(C)c3cnc(-c4cnn5cccnc45)cc31)CN(S(C)(=O)=O)C2` [Example 2, 1-(6-methoxy-2-(methylsulfonyl)isoindolin-5-yl)-3-methyl-6-(pyrazolo[1,5-a]pyrimidin-3-yl)-1H-pyrazolo[4,3-c]pyridine], `COc1cc2c(cc1-n1nc(C)c3cnc(-c4cnn5cccnc45)cc31)CCCN2` [Example 42, 7-methoxy-6-(3-methyl-6-(pyrazolo[1,5-a]pyrimidin-3-yl)-1H-pyrazolo[4,3-c]pyridin-1-yl)-1,2,3,4-tetrahydroquinoline] is lower in IC50: 5.01 to 50.1 nM for the first, less than 5.01 nM for the second.

First: COc1cc2c(cc1-n1nc(C(=O)NC3CN(C)C3)c3cnc(-c4cnn5cccnc45)cc31)SCCN2 [Example 17, 1-(6-methoxy-3,4-dihydro-2H-benzo[b][1,4]thiazin-7-yl)-N-(1-methylazetidin-3-yl)-6-(pyrazolo[1,5-a]pyrimidin-3-yl)-1H-pyrazolo[4,3-c]pyridine-3-carboxamide]
Second: COc1cc2c(cc1-n1nc(C)c3cnc(-c4cnn5cccnc45)cc31)SCCN2 [Example 6, 6-methoxy-7-(3-methyl-6-(pyrazolo[1,5-a]pyrimidin-3-yl)-1H-pyrazolo[4,3-c]pyridin-1-yl)-3,4-dihydro-2H-benzo[b][1,4]thiazine]
The IC50 of the first is higher: 5.01 to 50.1 nM for the first, less than 5.01 nM for the second. The second is the more potent here.

`COc1cc2c(cc1-n1nc(NC(=O)OCC3(N(C)C)CCOCC3)c3cnc(-c4cnn5cccnc45)cc31)SCCN2` [Example 34, (4-(dimethylamino)tetrahydro-2H-pyran-4-yl)methyl (1-(6-methoxy-3,4-dihydro-2H-benzo[b][1,4]thiazin-7-yl)-6-(pyrazolo[1,5-a]pyrimidin-3-yl)-1H-pyrazolo[4,3-c]pyridin-3-yl)carbamate] showed an IC50 of 5.01 to 50.1 nM.
